Legend:
barnyard grass [1] = test: Control of barnyard grass (10 inches), spray chamber, sugar alcohol rate series, Example 5; type: in vivo, Echinochloa crus-galli; details: for % control: S-3100 20 g/HA alone; for control of barnyard grass relative to S-3100 alone: 7 and 14 DAT, sugar alcohol at 1700, 3400, 6800, 13600 and 27200 g/HA with S-3100
Experimental: 12 trials were conducted on the efficacy of S-3100 with or without mannitol or sorbitol at various application rates. Specifically, 12 plots of barnyard grass were grown to 10 inches in height. These plots were placed in a spray chamber for treatment. All compositions contained 1% v/v of Agridex® and 0.25% v/v of Induce®. Treatments and results can be found in Table 5, below.

volunteer corn = test: Control and lodging of volunteer corn (14 inches), spray chamber, sugar alcohol rate series, Example 4; type: in vivo; details: for lodging on addition of the sugar alcohol to S-3100: addition to S-3100, rate not given; for control of volunteer corn relative to S-3100 alone: sugar alcohol at 1700, 3400, 6800, 13600 and 27200 g/HA with S-3100
Experimental: 12 trials were conducted on the efficacy of S-3100 with or without mannitol or sorbitol at various application rates. Specifically, 12 plots of volunteer corn were grown to 14 inches in height. These plots were placed in a spray chamber for treatment. All compositions contained 1% v/v of Agridex® and 0.25% v/v of Induce®. Treatments and results can be found in Table 4, below.

barnyard grass [2] = test: Control of barnyard grass (6 inches), spray chamber, Example 1; type: in vivo, Echinochloa crus-galli; details: S-3100 20 g/HA, mannitol or sorbitol 6800 g/HA where combined
Experimental: 4 trials were conducted on the efficacy of ethyl [3-[2-chloro-4-fluoro-5-(1-methyl-6-trifluoromethyl-2,4-dioxo-1,2,3,4-tetrahydropyrimidin-3-yl)phenoxy]-2-pyridyloxy]acetate (“S-3100”) with or without mannitol or sorbitol. Specifically, 4 plots of barnyard grass were grown to 6 inches in height. These plots were placed in a spray chamber for treatment. All compositions contained 1% v/v of Agridex® and 0.25% v/v of Induce®. Treatments and results can be found in Table 1, below.

[3] = test system: soybean petioles/leaves at V6 stage; test: Soybean petiole detached assay (translocation of S-3100), Example 6; type: in vivo; details: 21 DAT, S-3100 20 g/HA, mannitol or sorbitol 6800 g/HA, FIG. 1
Experimental: FIG. 1. Soybean plant leaf at V6 stage. A. untreated control. B. Treated with 20 g/HA S-3100. C. Treated with 6800 g/HA mannitol. D. Treated with 6800 g/HA sorbitol. E. Treated with 20 g/HA S-3100 and 6800 g/HA mannitol. F. Treated with 20 g/HA S-3100 and 6800 g/HA sorbitol.
4 plots of soybeans were grown to the V6 stage. Soybean petioles of plants at the V6 stage were treated in a petiole detached assay with 1 of the following 4 treatments: 1) untreated; 2) 20 g/HA S-3100; 3) 20 g/HA S-3100 and 6800 g/HA mannitol or 4) 20 g/HA S-3100 and 6800 g/HA sorbitol. Results were recorded 21 DAT. Results can be seen in FIG. 1.

corn = test: Control of corn (12 inches), spray chamber, Example 2; type: in vivo; details: S-3100 20 g/HA, mannitol or sorbitol 6800 g/HA where combined
Experimental: 4 trials were conducted on the efficacy of S-3100 with or without mannitol or sorbitol. Specifically, 4 plots of corn were grown to 12 inches in height. These plots were placed in a spray chamber for treatment. All compositions contained 1% v/v of Agridex® and 0.25% v/v of Induce®. Treatments and results can be found in Table 2, below.

crabgrass = test: Control of crabgrass (10 inches), spray chamber, sugar alcohol rate series, Example 3; type: in vivo, Digitaria sanguinalis; details: for % control: S-3100 20 g/HA alone; for control of crabgrass relative to S-3100 alone: 7 and 14 DAT, sugar alcohol at 1700, 3400, 6800, 13600 and 27200 g/HA with S-3100
Experimental: 12 trials were conducted on the efficacy of S-3100 with or without mannitol or sorbitol at various application rates. Specifically, 12 plots of crabgrass were grown to 10 inches in height. These plots were placed in a spray chamber for treatment. All compositions contained 1% v/v of Agridex® and 0.25% v/v of Induce®. Treatments and results can be found in Table 3, below.

## CCOC(=O)COc1ncccc1Oc1cc(-n2c(=O)cc(C(F)(F)F)n(C)c2=O)c(F)cc1Cl [S-3100, ethyl [3-[2-chloro-4-fluoro-5-(1-methyl-6-trifluoromethyl-2,4-dioxo-1,2,3,4-tetrahydropyrimidin-3-yl)phenoxy]-2-pyridyloxy]acetate]
Barnyard grass [1]; 7 DAT
  % control: 94.1%
Barnyard grass [1]; 14 DAT
  % control: 89.1%
Volunteer corn; 7 DAT, S-3100 20 g/HA alone
  % control: 80.6%
Volunteer corn; 8 DAT, S-3100 20 g/HA alone
  % lodging: 75%
Barnyard grass [2]; 2 days after treatment, 1% v/v Agridex, 0.25% v/v Induce
  % control: 27.2%
Barnyard grass [2]; 7 days after treatment
  % control: 72.1%
Barnyard grass [2]; 13 days after treatment
  % control: 49.3%
Barnyard grass [2]; 20 days after treatment
  % control: 40%
[3]
  leaf symptoms (necrosis, yellowing, bronzing) as sign of translocation: leaf yellowing and vein necrosis especially on the main vascular tissue
corn; 9 days after treatment, 1% v/v Agridex, 0.25% v/v Induce
  % control: 55.8%
corn; 13 days after treatment
  % control: 52.5%
corn; 22 days after treatment
  % control: 25%
crabgrass; 7 DAT
  % control: 81.3%
crabgrass; 14 DAT
  % control: 76.9%

## OC[C@@H](O)[C@@H](O)[C@H](O)[C@H](O)CO [mannitol]
Barnyard grass [1]
  control of barnyard grass relative to S-3100 alone: increase control of barnyard grass over S-3100 alone
Volunteer corn
  lodging on addition of the sugar alcohol to S-3100: did not increase lodging
  control of volunteer corn relative to S-3100 alone: increase control of volunteer corn over S-3100 alone
[3]
  leaf symptoms (necrosis, yellowing, bronzing) as sign of translocation: necrotic areas on the leaf tissue
crabgrass
  control of crabgrass relative to S-3100 alone: increase control of crabgrass over S-3100 alone

## OC[C@@H](O)[C@@H](O)[C@H](O)[C@@H](O)CO [sorbitol]
Barnyard grass [1]
  control of barnyard grass relative to S-3100 alone: increase control of barnyard grass over S-3100 alone
Volunteer corn
  lodging on addition of the sugar alcohol to S-3100: 100%
  control of volunteer corn relative to S-3100 alone: increase control of volunteer corn over S-3100 alone
crabgrass
  control of crabgrass relative to S-3100 alone: increase control of crabgrass over S-3100 alone

Reference: patent US12402622B2, “Agricultural compositions and methods of use thereof” (Valent U.S.A. LLC, priority 2019, dated 2025)
